Results published in US20240390487A1, “TLR AGONISTS FOR REDUCING ACTIVATION-INDUCED PD-1 EXPRESSION ON T CELLS AND METHODS OF USE” (WISCONSIN ALUMNI RESEARCH FOUNDATION, priority 2016, published 2024).
Entries after “also recorded” stand apart in the source; their conditions may differ.

Tested on: OT-1 transgenic splenocytes
Test: In vitro stimulation of OT-1 splenocytes with peptide antigen in the presence of TLR agonists, surface markers by flow cytometry
Type: cell-based, mice
Parameters: key to 4-1BB / PD-1 / LAG3 / CD160 / CD244.2 / BTLA / VISTA: “+” means increase; “−” means decrease; “=” means no change; “=/+” or “=/−” means the change is there but not significant; “=/+” or “=/−” means the change is there but not significant
Details: for 4-1BB / LAG3 / PD-1 / BTLA / CD160 / CD244.2 / VISTA: OT-1 splenocytes, high affinity antigen plus TLR agonist, versus antigen alone; for PD-1 expression on activated T cells / T cell activation measured by 4-1BB / levels of tested checkpoint markers (BTLA, VISTA, CD160, CD244.2): in words; for PD-1 expression on activated T cells: SIINFEKL plus TLR agonist versus antigen alone, up to 4 days; for T cell activation measured by 4-1BB: SIINFEKL plus TLR agonist; for levels of tested checkpoint markers (BTLA, VISTA, CD160, CD244.2): high affinity antigen plus TLR agonist versus no TLR agonist
Experimental: T cell activation was measured by the levels of marker 4-1BB (a/k/a CD137, a member of the TNF receptor superfamily). The level of PD-1 expression was also assessed in these cells (FIG. 1B).
There was no difference in LAG3 expression between the control cells and cells treated with any of the assayed TLR agonists.
OT-1 transgenic splenocytes were treated with high affinity antigen in combination with Pam3CSK4 (TLR1 and 2 agonist), Gardiquimod (TLR7 agonist) or no TLR agonist and the levels of different checkpoint markers or T cell stimulation (measured by 4-1BB, FIG. 5) were assayed. The checkpoint markers BTLA (FIG. 6), VISTA (FIG. 7), CD160 (FIG. 8) and CD244.2 (FIG. 9) were assayed.
TLR stimulation at the time of T-cell activation in vitro affects expression of PD-1. Given that CpG-rich DNA is a TLR9 agonist and Lm is a TLR2 agonist, we questioned whether TLR stimulation with different ligands could similarly affect expression of different T-cell checkpoint inhibitors. […] OT-1 splenocytes were stimulated in vitro with peptides of different affinity for MHC class I (high-affinity SIINFEKL peptide (SEQ ID NO:1, OVA), moderate-affinity SIINTEKL peptide (SEQ ID NO:2, FT), or low-affinity SIINFEKP peptide (SEQ ID NO:7, LP)), alone or in the presence of different TLR ligands (TLR 1/2 (Pam3CSK4), TLR 3 (Poly I:C), TLR 4 (MPLAs), TLR 7 (Gardiquimod), TLR 7/8 (R848), or TLR 9 (ODN1826)). […] Similarly, LAG-3 expression increased by day 3, but was not affected by the presence of different TLR ligands. […] This reduction in PD-1 expression was observed most with the high-affinity SIINFEKL (SEQ ID NO:1) epitope, but also observed following activation with lower affinity epitopes. Given these findings, we evaluated expression of multiple other T-cell checkpoint molecules following T-cell activation in the presence of TLR ligands. […] Cytotoxic T-lymphocyte-associated protein 4 (CTLA-4) expression, however, was increased in the presence of TLR1/2 agonist. Similar results were found activating OT-1 cells with the lower affinity FT (SIINTEKL peptide (SEQ ID NO:2)), LP (SIINFEKP peptide (SEQ ID NO:7), or LY (SIINFEKY, SEQ ID NO:8) epitopes (FIG. 19).
In vitro T-cell stimulation: Spleens were collected from OT-1 mice, processed through a mesh screen, and splenocytes were isolated by centrifugation after red blood cell osmotic lysis with ammonium chloride/[…] lysis buffer (0.15 M NH4Cl, 10 mM KHCO3, 0.1 mM EDTA). Splenocytes were cultured at 2×10^6/mL in RPMI 1640 medium supplemented with L-glutamine, 10% fetal calf serum (FCS), 200 U/mL penicillin/streptomycin, 1% sodium pyruvate, 1% HEPES, 50 μM β-MeOH, and 2 μg/mL of the designated peptide. TLR agonists were all purchased from InvivoGen (San Diego, CA) and added one hour before peptides at the following optimal concentrations based on preliminary studies and previously reported results: 300 ng/ml Pam3CSK4, 10 μg/mL Poly(I:C) HMW, 10 μg/ml MPLAs, 3 μg/ml Gardiquimod, 10 μg/ml R848, 5 μM ODN 1826. At the time points indicated, cells were stained, fixed for 15 min at 4° C. in cytofix (BD Biosciences (BD), San Jose, CA; 554655), and frozen in FCS+10% DMSO. After all time points were collected, cells from all times were thawed, rinsed and resuspended in PBS+3% FCS+1 mM EDTA and analyzed by flow cytometry. Cells were stained for 30 min at 4° C. in a 1:4 dilution of brilliant stain buffer (BD 563794) in PBS+3% FCS+1 mM EDTA. In order to assess co-stimulation, blocking antibodies for CD80 (0.6 μg/mL), CD86 (0.25 μg/mL) or OX40L (0.6 μg/mL) were added 1 hour prior to antigen.

Compound	4-1BB	LAG3	PD-1	PD-1 expression on activated T cells	PD-1 expression on activated T cells (listed as TLR3)	BTLA	CD160	CD244.2	VISTA	T cell activation measured by 4-1BB	levels of tested checkpoint markers (BTLA, VISTA, CD160, CD244.2)	PD-1 expression on activated T cells (listed as TLR4)	CTLA-4 expression (OT-1 T cells activated with SIINFEKL in the presence of TLR ligand)
Poly(I:C) [PolyI:C]	=	=/+	=/−	did not significantly reduce	did not lead to decreased PD-1 expression								
CCNCc1nc2c(N)nc3ccccc3c2n1CC(C)(C)O [Gardiquimod]	=	=	−	expressed low levels of PD-1; also recorded: significantly reduced		=/−	−	=/−	=	activated	did not affect		
Monophosphoryl Lipid A [MPLAs]	=	=	=	did not significantly reduce								did not lead to PD-1 downregulation	
Pam3CSK4	=	=	−	expressed low levels of PD-1; also recorded: significantly reduced		=/−	−	=	−	activated	did not affect		increased
